# Measurements published in patent US11504365B2 (AVEO Pharmaceuticals, Inc., priority 2018, dated 2022).
# Like-named read-outs stand apart in the source and are kept apart here.
# Legend:
# [1] = system: refractory advanced renal cell carcinoma (RCC); test: Randomized open-label Phase 3 study of tivozanib versus sorafenib, efficacy (PFS, OS, ORR, DoR); settings: for median PFS: ITT population, independent radiologic review, stratified log rank p-value 0.0165; for median OS: ITT, two years after final patient enrollment, stratified log rank p-value 0.9501; for median PFS, subset receiving a prior check point inhibitor: prior checkpoint inhibitor at any time, tivozanib n=52, sorafenib n=46, unstratified Log-rank p-value 0.0616; for duration of response (DoR), 1st quartile: subjects with objective tumor response (PR or CR), not statistically significant; for 1-year probability of survival: subjects with prior checkpoint inhibitor, FIG. 5 (Kaplan-Meier analysis of IRR PFS)
# From the text: (§1) The randomization of subjects was stratified according to the International Metastatic Renal Cell Carcinoma Database Consortium (IMDC) risk category (favorable, intermediate, poor) and according to prior therapy which could be: 1) two prior VEGFR TKIs; 2) a check point inhibitor (e.g., a PD-1 or PDL-1 inhibitor) and a prior VEGFR TKI; or 3) a VEGFR TKI plus any other systemic agent. Once the strata were identified, treatment was randomly assigned to a subject with the strata using a complete permuted block design in an unblended fashion (open-label).
# Cycles were repeated every 4 weeks.
# (§2) Subjects were analyzed as randomized • 2. […] Subjects were analyzed as treated. • 3. […] Subjects were analyzed as treated.
# (§3) The primary efficacy endpoint (PFS) and secondary efficacy endpoints (OS, ORR, and DoR) analyses were carried out using the ITT population. The primary efficacy endpoint of PFS also was analyzed using the PP population.
# (§4) The IRR was the primary data source for the PFS analysis.
# (§5) The primary analysis was carried out by using a stratified Log-Rank test, in which the stratification factors were IMDC risk category (favorable; intermediate; poor) and prior therapy (two prior VEGFR TKIs; a prior checkpoint inhibitor (PD-1 or PD1 L inhibitor) plus a prior VEGFR TKI; a prior VEGFR TKI plus any other systemic agent), and using a two-sided 5% significance level. The distribution of the PFS was estimated using the Kaplan-Meier method.
# (§6) The DoR was analyzed using the same method as the progression-free survival analysis. DoR was only calculated for the subgroup of subjects with an objective tumor response (PR or CR).
# [2] = system: refractory advanced renal cell carcinoma (RCC)
# From the text: as §1
# Cycles were repeated every 4 weeks.
# as §2, §3, §4, §5, §6
# [3] = prior phase III clinical trial; cited from earlier work
# [4] = cited from earlier work
# [5] = 1.5 mg/day, 3 weeks on, 1 week off, cited from earlier work
# [6] = subjects with prior therapy with a VEGFR TKI plus any other systemic agent
# [7] = subjects with prior therapy with a checkpoint inhibitor and a prior VEGF TKI
# [8] = subjects with prior therapy with two VEGFR TKIs
smiles,measurement,setting,value
"CNC(=O)c1cc(Oc2ccc(NC(=O)Nc3ccc(Cl)c(C(F)(F)F)c3)cc2)ccn1 [sorafenib, reference compound]",median PFS,[1],3.88 months
same,median OS,[1],19.65 months
same,"median PFS, subset receiving a prior check point inhibitor",[1],5.91 months
same,"duration of response (DoR), 1st quartile",[1],5.55 months
same,1-year probability of survival,[1],0.05
same,ORR,[1]; [6],9.8%
same,ORR,[1]; [7],6.8%
same,ORR,[1]; [8],7.5%
same,ORR (CR + PR),[2],8.0%
"COc1cc2nccc(Oc3ccc(NC(=O)Nc4cc(C)on4)c(Cl)c3)c2cc1OC [tivozanib, N-{2-chloro-4-[(6,7-dimethoxy-4-quinolyl)oxy]-phenyl}-N′-(5-methyl-3-isoxazolyl)urea]",median PFS,[1],5.59 months
same,difference in OS between tivozanib and sorafenib in subgroup analyses,"[1]; ITT subgroups, Cox Model hazard ratios with 95% confidence intervals",do not indicate a statistically significant difference in OS
same,median OS,[1],16.39 months
same,ORR (CR + PR),"[1]; all subjects, 31 PR/172 tivozanib, 14 PR/175 sorafenib",18.0%
same,"median PFS, subset receiving a prior check point inhibitor",[1],7.29 months
same,"duration of response (DoR), 1st quartile",[1],9.79 months
same,1-year probability of survival,[1],0.37
same,ORR,[1]; [6],16.7%
same,ORR,[1]; [7],24.4%
same,ORR,[1]; [8],15.2%
same,difference in OS between the two treatment groups,"[1]; subset with prior checkpoint inhibitor, unstratified Log-rank p-value 0.8360",no statistically significant differences
same,"treatment interruptions and dose reductions due to AEs, compared with sorafenib",[3],fewer treatment interruptions and dose reductions due to AEs
same,subjects experiencing a dose limiting toxicity (DLT),[4]; 2 mg/day tivozanib group,3 of 8
same,maximum tolerated dose (MTD),[4]; previous study KRN951/03-B01,1.5 mg/day
same,reversibility of toxicities upon stopping treatment,[4]; previous study KRN951/03-B01,rapidly reversible
same,study subjects requiring a dose interruption,[5]; 8/272 subjects,2.9%
same,study subjects requiring a dose reduction,[5]; 23/272 subjects,8.5%
